Reference: ChEMBL document CHEMBL1154412, “In vitro activity of telavancin against gram-positive clinical isolates recently obtained in Europe” (Antimicrob Agents Chemother, 2007)
≈ marks a conversion by molar mass, not a printed value.

Key:
[1] = tested on: Streptococcus sp. 'group B'; assay: Antimicrobial activity against Streptococcus group B after 20 to 24 hrs by broth microdilution method; format: functional
Staphylococcus aureus [2] = assay: Antimicrobial activity against methicillin-resistant Staphylococcus aureus after 20 to 24 hrs by broth microdilution method; format: functional
Staphylococcus aureus [3] = assay: Antimicrobial activity against methicillin-susceptible Staphylococcus aureus after 20 to 24 hrs by broth microdilution method; format: functional
Enterococcus faecium [4] = assay: Antibacterial activity against vancomycin-susceptible Enterococcus faecium after 20 to 24 hrs by broth microdilution method; format: functional
Enterococcus faecalis [5] = assay: Antimicrobial activity against vancomycin-susceptible Enterococcus faecalis after 20 to 24 hrs by broth microdilution method; format: functional
Streptococcus pneumoniae [6] = assay: Antibacterial activity against penicillin-resistant Streptococcus pneumoniae after 20 to 24 hrs by broth microdilution method; format: functional
Streptococcus pneumoniae [7] = assay: Antibacterial activity against penicillin-intermediate Streptococcus pneumoniae after 20 to 24 hrs by broth microdilution method; format: functional
Enterococcus faecalis [8] = assay: Antimicrobial activity against vancomycin-resistant Enterococcus faecalis after 20 to 24 hrs by broth microdilution method; format: functional
[9] = Protein binding in human plasma; format: ADME, cell-free; details: read-out: PB (converted)
Homo sapiens = assay: Plasma concentration in human at 7.5 mg/kg; format: ADME, organism-based; design: dose 7.5 mg/kg; details: in vivo
[10] = tested on: Streptococcus sp. 'group A'; assay: Antimicrobial activity against Streptococcus group A after 20 to 24 hrs by broth microdilution method; format: functional
Streptococcus pneumoniae [11] = assay: Antibacterial activity against penicillin-susceptible Streptococcus pneumoniae after 20 to 24 hrs by broth microdilution method; format: functional
Staphylococcus [12] = assay: Antimicrobial activity against methicillin-susceptible coagulase-negative Staphylococcus after 20 to 24 hrs by broth microdilution method; format: functional
Staphylococcus [13] = assay: Antimicrobial activity against methicillin-resistant coagulase-negative Staphylococcus after 20 to 24 hrs by broth microdilution method; format: functional
Enterococcus faecium [14] = assay: Antibacterial activity against vancomycin-resistant Enterococcus faecium after 20 to 24 hrs by broth microdilution method; format: functional
Streptococcus viridans = assay: Antimicrobial activity against Streptococcus viridans after 20 to 24 hrs by broth microdilution method; format: functional

Structure (SMILES): CCCCCCCCCCNCCN[C@@]1(C)C[C@H](O[C@H]2[C@H](Oc3c4cc5cc3Oc3ccc(cc3Cl)[C@@H](O)[C@@H](NC(=O)[C@@H](CC(C)C)NC)C(=O)N[C@@H](CC(N)=O)C(=O)N[C@H]5C(=O)N[C@H]3C(=O)N[C@H](C(=O)N[C@H](C(=O)O)c5cc(O)c(CNCP(=O)(O)O)c(O)c5-c5cc3ccc5O)[C@H](O)c3ccc(c(Cl)c3)O4)O[C@H](CO)[C@@H](O)[C@@H]2O)O[C@@H](C)[C@H]1O [TELAVANCIN]
- MIC50 [1]: 0.06 µg/mL (≈ 0.0342 µM)
- MIC90 [1]: 0.06 µg/mL (≈ 0.0342 µM)
- MIC50 (Staphylococcus aureus [2]): 0.25 µg/mL (≈ 0.142 µM)
- MIC90 (Staphylococcus aureus [2]): 0.25 µg/mL (≈ 0.142 µM)
- MIC50 (Staphylococcus aureus [3]): 0.25 µg/mL (≈ 0.142 µM)
- MIC90 (Staphylococcus aureus [3]): 0.25 µg/mL (≈ 0.142 µM)
- MIC50 (Enterococcus faecium [4]): 0.12 µg/mL (≈ 0.0684 µM)
- MIC90 (Enterococcus faecium [4]): 0.25 µg/mL (≈ 0.142 µM)
- MIC50 (Enterococcus faecalis [5]): 0.25 µg/mL (≈ 0.142 µM)
- MIC90 (Enterococcus faecalis [5]): 0.5 µg/mL (≈ 0.285 µM)
- MIC (Streptococcus pneumoniae [6]): 0.015 µg/mL (≈ 0.00854 µM)
- MIC50 (Streptococcus pneumoniae [6]): 0.015 µg/mL (≈ 0.00854 µM)
- MIC90 (Streptococcus pneumoniae [6]): 0.03 µg/mL (≈ 0.0171 µM)
- MIC50 (Streptococcus pneumoniae [7]): 0.015 µg/mL (≈ 0.00854 µM)
- MIC90 (Streptococcus pneumoniae [7]): 0.03 µg/mL (≈ 0.0171 µM)
- MIC50 (Enterococcus faecalis [8]): 4 µg/mL (≈ 2.28 µM)
- MIC90 (Enterococcus faecalis [8]): 8 µg/mL (≈ 4.56 µM)
- fraction unbound [9]: 0.1
- Cp (Homo sapiens): 96.7 µg/mL
- MIC [10]: 0.03 µg/mL (≈ 0.0171 µM)
- MIC50 [10]: 0.03 µg/mL (≈ 0.0171 µM)
- MIC90 [10]: 0.06 µg/mL (≈ 0.0342 µM)
- MIC50 (Streptococcus pneumoniae [11]): 0.015 µg/mL (≈ 0.00854 µM)
- MIC90 (Streptococcus pneumoniae [11]): 0.03 µg/mL (≈ 0.0171 µM)
- MIC50 (Staphylococcus [12]): 0.25 µg/mL (≈ 0.142 µM)
- MIC90 (Staphylococcus [12]): 0.25 µg/mL (≈ 0.142 µM)
- MIC50 (Staphylococcus [13]): 0.25 µg/mL (≈ 0.142 µM)
- MIC90 (Staphylococcus [13]): 0.25 µg/mL (≈ 0.142 µM)
- MIC50 (Enterococcus faecium [14]): 1 µg/mL (≈ 0.57 µM)
- MIC90 (Enterococcus faecium [14]): 2 µg/mL (≈ 1.14 µM)
- MIC50 (Streptococcus viridans): 0.06 µg/mL (≈ 0.0342 µM)
- MIC90 (Streptococcus viridans): 0.06 µg/mL (≈ 0.0342 µM)
